From PubChem BioAssay AID1963984 (Molecular Pharmacology Branch, DTP, NCI, 2024)

Test system: 233499-124-R-J3-PDC spheroids with HUVEC/MSC, viability
Experiment: Anticancer human tumor 233499-124-R-J3-PDC patient-derived colon adenocarcinoma cell line growth inhibition [PI3K]
Conditions: for IC50: curve of first compound; for viability, T/C: stronger effect = lower value
Outline: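 Tumor cells were combined with HUVEC and MSCs into spheroids, then dosed with PI3K-inhibitor combinations over half-log ranges capped near clinical Cmax or 10 microM.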
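Further: spheroids exposed to agents for seven days before readout.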
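Wherever viability, T/C is given: percent viability relative to DMSO vehicle control taken as 100%.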

CC1(C)CCC(CN2CCN(c3ccc(C(=O)NS(=O)(=O)c4ccc(NCC5CCOCC5)c([N+](=O)[O-])c4)c(Oc4cnc5[nH]ccc5c4)c3)CC2)=C(c2ccc(Cl)cc2)C1 + Cc1nc(NC(=O)N2CCCC2C(N)=O)sc1-c1ccnc(C(C)(C)C(F)(F)F)c1
IC50 (second compound 0.0316 µM): 6.18 µM | IC50 (second compound 0.1 µM): 5.47 µM | IC50 (second compound 0.316 µM): 5.38 µM | IC50 (second compound 1 µM): 4.33 µM | IC50 (second compound 3.16 µM): 2.61 µM | IC50 (second compound 10 µM): < 0.0316 µM | viability, T/C (second compound 0.0316 µM, first compound 0.0316 µM): 110% | viability, T/C (second compound 0.0316 µM, first compound 0.1 µM): 104% | viability, T/C (second compound 0.0316 µM, first compound 0.316 µM): 107% | viability, T/C (second compound 0.0316 µM, first compound 1 µM): 115% | viability, T/C (second compound 0.0316 µM, first compound 3.16 µM): 106% | viability, T/C (second compound 0.0316 µM, first compound 10 µM): 10.1% | viability, T/C (second compound 0.1 µM, first compound 0.0316 µM): 112% | viability, T/C (second compound 0.1 µM, first compound 0.1 µM): 98.1% | viability, T/C (second compound 0.1 µM, first compound 0.316 µM): 66.5% | viability, T/C (second compound 0.1 µM, first compound 1 µM): 109% | viability, T/C (second compound 0.1 µM, first compound 3.16 µM): 93% | viability, T/C (second compound 0.1 µM, first compound 10 µM): 2.57% | viability, T/C (second compound 0.316 µM, first compound 0.0316 µM): 99.9% | viability, T/C (second compound 0.316 µM, first compound 0.1 µM): 89.3% | viability, T/C (second compound 0.316 µM, first compound 0.316 µM): 76% | viability, T/C (second compound 0.316 µM, first compound 1 µM): 88.3% | viability, T/C (second compound 0.316 µM, first compound 3.16 µM): 88.9% | viability, T/C (second compound 0.316 µM, first compound 10 µM): 5.24% | viability, T/C (second compound 1 µM, first compound 0.0316 µM): 97.6% | viability, T/C (second compound 1 µM, first compound 0.1 µM): 73.7% | viability, T/C (second compound 1 µM, first compound 0.316 µM): 80.8% | viability, T/C (second compound 1 µM, first compound 1 µM): 82.8% | viability, T/C (second compound 1 µM, first compound 3.16 µM): 67% | viability, T/C (second compound 1 µM, first compound 10 µM): 4.35% | viability, T/C (second compound 3.16 µM, first compound 0.0316 µM): 61.9% | viability, T/C (second compound 3.16 µM, first compound 0.1 µM): 51.9% | viability, T/C (second compound 3.16 µM, first compound 0.316 µM): 61.8% | viability, T/C (second compound 3.16 µM, first compound 1 µM): 62.4% | viability, T/C (second compound 3.16 µM, first compound 3.16 µM): 48.1% | viability, T/C (second compound 3.16 µM, first compound 10 µM): 1.21% | viability, T/C (second compound 10 µM, first compound 0.0316 µM): 32.1% | viability, T/C (second compound 10 µM, first compound 0.1 µM): 26.4% | viability, T/C (second compound 10 µM, first compound 0.316 µM): 22.6% | viability, T/C (second compound 10 µM, first compound 1 µM): 31.1% | viability, T/C (second compound 10 µM, first compound 3.16 µM): 9.66% | viability, T/C (second compound 10 µM, first compound 10 µM): 2.29%
